Read-outs that look alike come from different tables or passages of the source.
Columns and labels:
[1] = Localization in callous of three week-old tibial fractures in rabbits (Example 2); type: in vivo, albino rabbit; settings: rabbits i.v.
Description: Adult New Zealand albino rabbits having an average weight of 3.8 kg were utilized. Strontium-85 was employed as a standard for comparison. […] Each dosage is contained in a volume of 1 ml.
The animals were sacrificed serially from 1 to 24 hours after injection and the activities in major organs were determined by counting multiple samples from each organ in a scintillation well counter (the technetium-99m counts were corrected for the Compton contributions from the strontium-85 activity in the technetium-99m energy window). Multiple samples were counted from the tibia, femur, spine and pelvic bones; the total activity in the skeleton was estimated by assuming the whole skeleton consisted of equal proportions by weight of tibia, spine, femur and pelvis and that the skeletal mass was 10% of the body weight. […] The whole liver and both kidneys were weighed and multiple samples from each were counted to measure the total activity in each organ.
In another series of experiments carried out as described above, localization of technetium from its tin-phosphonate complex was determined in the callous of three week-old fractures of tibia in albino rabbits, again in comparison with strontium-85. Comparative radioassay of technetium-99m administered as the pertechnetate was measured in the callous of tibial fractures in rabbits at one and four hours after administration.

[2] = for Blood, % dose/1% body weight / Bone(Avg), % dose/1% body weight / Femur, % dose/1% body weight / Kidneys, % Dose in Whole Organ / Kidneys, % dose/1% body weight / Liver, % Dose in Whole Organ / Liver, % dose/1% body weight / Marrow, % Dose in Whole Organ / Marrow, % dose/1% body weight / Muscle, % dose/1% body weight / One femur, % dose in whole organ / Pelvis, % dose/1% body weight / Spine, % dose/1% body weight / Tibia, % dose/1% body weight / Blood, % Dose in Whole Organ: rabbits i.v., ~1 mg/kg EHDP
[3] = rabbits, 2 Hrs.

## tin-1-hydroxy-ethane-1,1-diphosphonate [^99m Tc-EHDP]
[1]; 1 Hr.
  Callus, % dose/1% body weight: 24.7 % dose/1% body weight
[1]; 4 Hrs
  Callus, % dose/1% body weight: 28.9 % dose/1% body weight
[2]; at various times
  skeletal concentrations compared with 85Sr: similar
  soft tissue and blood concentrations compared with 85Sr: much lower than those for 85Sr
[2]; 1 Hr.
  Blood, % dose/1% body weight: 1.23 % dose/1% body weight
  Bone(Avg), % dose/1% body weight: 4.66 % dose/1% body weight
  Femur, % dose/1% body weight: 3.85 % dose/1% body weight
  Kidneys, % Dose in Whole Organ: 2.40 % dose
  Kidneys, % dose/1% body weight: 3.93 % dose/1% body weight
  Liver, % Dose in Whole Organ: 0.80 % dose
  Liver, % dose/1% body weight: 0.30 % dose/1% body weight
  Marrow, % Dose in Whole Organ: 0.70 % dose
  Marrow, % dose/1% body weight: 0.36 % dose/1% body weight
  Muscle, % dose/1% body weight: 0.15 % dose/1% body weight
  One femur, % dose in whole organ: 0.82 % dose
  Pelvis, % dose/1% body weight: 7.15 % dose/1% body weight
  Spine, % dose/1% body weight: 5.87 % dose/1% body weight
  Tibia, % dose/1% body weight: 2.17 % dose/1% body weight
[2]; 2 Hrs
  Blood, % dose/1% body weight: 0.37 % dose/1% body weight
  Bone(Avg), % dose/1% body weight: 4.82 % dose/1% body weight
  Femur, % dose/1% body weight: 3.94 % dose/1% body weight
  Kidneys, % dose/1% body weight: 2.72 % dose/1% body weight
  Liver, % Dose in Whole Organ: 0.42 % dose
  Liver, % dose/1% body weight: 0.18 % dose/1% body weight
  Marrow, % Dose in Whole Organ: 0.38 % dose
  Marrow, % dose/1% body weight: 0.17 % dose/1% body weight
  Muscle, % dose/1% body weight: 0.04 % dose/1% body weight
  One femur, % dose in whole organ: 0.84 % dose
  Pelvis, % dose/1% body weight: 7.40 % dose/1% body weight
  Spine, % dose/1% body weight: 5.44 % dose/1% body weight
  Tibia, % dose/1% body weight: 2.49 % dose/1% body weight
[2]; 4 Hrs
  Blood, % Dose in Whole Organ: 0.89 % dose
  Bone(Avg), % dose/1% body weight: 4.74 % dose/1% body weight
  Femur, % dose/1% body weight: 3.86 % dose/1% body weight
  Kidneys, % Dose in Whole Organ: 0.94 % dose
  Kidneys, % dose/1% body weight: 1.95 % dose/1% body weight
  Liver, % Dose in Whole Organ: 0.28 % dose
  Marrow, % Dose in Whole Organ: 0.83 % dose
  Marrow, % dose/1% body weight: 0.38 % dose/1% body weight
  One femur, % dose in whole organ: 0.81 % dose
  Pelvis, % dose/1% body weight: 7.41 % dose/1% body weight
  Spine, % dose/1% body weight: 5.52 % dose/1% body weight
  Tibia, % dose/1% body weight: 2.16 % dose/1% body weight
[2]; 24 Hrs
  Blood, % Dose in Whole Organ: 0.49 % dose
  Blood, % dose/1% body weight: 0.07 % dose/1% body weight
  Bone(Avg), % dose/1% body weight: 4.14 % dose/1% body weight
  Femur, % dose/1% body weight: 3.42 % dose/1% body weight
  Kidneys, % Dose in Whole Organ: 0.63 % dose
  Kidneys, % dose/1% body weight: 1.29 % dose/1% body weight
  Liver, % Dose in Whole Organ: 0.43 % dose
  Liver, % dose/1% body weight: 0.28 % dose/1% body weight
  Marrow, % Dose in Whole Organ: 0.42 % dose
  Marrow, % dose/1% body weight: 0.19 % dose/1% body weight
  One femur, % dose in whole organ: 0.76 % dose
  Pelvis, % dose/1% body weight: 5.70 % dose/1% body weight
  Spine, % dose/1% body weight: 5.30 % dose/1% body weight
  Tibia, % dose/1% body weight: 2.10 % dose/1% body weight
[3]; EHDP 0.01 mg/kg
  Blood, % Dose in Whole Organ: 0.99 % Dose
  Blood, % Dose/1%-body weight: 0.142 % Dose/1%-body weight
  Femur, % Dose/1%-body weight: 7.49 % Dose/1%-body weight
  Kidney, % Dose/1%-body weight: 1.55 % Dose/1%-body weight
  Kidneys, % Dose in Whole Organ: 0.81 % Dose
  Liver, % Dose in Whole Organ: 0.53 % Dose
  Liver, % Dose/1%-body weight: 0.154 % Dose/1%-body weight
  Marrow, % Dose in Whole Organ: 0.34 % Dose
  Marrow, % Dose/1%-body weight: 0.152 % Dose/1%-body weight
  Muscle, % Dose in Whole Organ: 0.78 % Dose
  One femur, % dose in whole organ: 2.20 % Dose
  Tibia, % Dose/1%-body weight: 8.22 % Dose/1%-body weight
[3]; EHDP 0.05 mg/kg
  Blood, % Dose/1%-body weight: 0.193 % Dose/1%-body weight
  Femur, % Dose/1%-body weight: 8.38 % Dose/1%-body weight
  Kidney, % Dose/1%-body weight: 3.83 % Dose/1%-body weight
  Kidneys, % Dose in Whole Organ: 2.9 % Dose
  Liver, % Dose/1%-body weight: 0.432 % Dose/1%-body weight
  Marrow, % Dose in Whole Organ: 0.78 % Dose
  Marrow, % Dose/1%-body weight: 0.353 % Dose/1%-body weight
  Tibia, % Dose/1%-body weight: 8.68 % Dose/1%-body weight
[3]; EHDP 0.1 mg/kg
  Blood, % Dose/1%-body weight: 0.146 % Dose/1%-body weight
  Femur, % Dose/1%-body weight: 8.97 % Dose/1%-body weight
  Kidney, % Dose/1%-body weight: 1.09 % Dose/1%-body weight
  Kidneys, % Dose in Whole Organ: 0.63 % Dose
  Liver, % Dose in Whole Organ: 0.19 % Dose
  Liver, % Dose/1%-body weight: 0.068 % Dose/1%-body weight
  Marrow, % Dose in Whole Organ: 0.20 % Dose
  Marrow, % Dose/1%-body weight: 0.093 % Dose/1%-body weight
  Muscle, % Dose in Whole Organ: 0.98 % Dose
  Tibia, % Dose/1%-body weight: 9.63 % Dose/1%-body weight
[3]; EHDP 0.5 mg/kg
  Blood, % Dose/1%-body weight: 0.215 % Dose/1%-body weight
  Kidney, % Dose/1%-body weight: 2.23 % Dose/1%-body weight
  Kidneys, % Dose in Whole Organ: 1.10 % Dose
  Liver, % Dose in Whole Organ: 0.260 % Dose
  Liver, % Dose/1%-body weight: 0.086 % Dose/1%-body weight
  Marrow, % Dose in Whole Organ: 0.19 % Dose
  Marrow, % Dose/1%-body weight: 0.088 % Dose/1%-body weight

Reference: patent US4115541A (priority 1975, dated 1978)
